Values after ≈ are worked out from the molar mass of the structure shown. Where two headings read alike, the source gives them in different places. *1 amine or outer side, *2 acyl side, *3 side chain or, on linkers, in order; H or OH if unused. Where a SMILES comes first, the peptide text is derived from it. Side-chain parts run from the residue outwards. [ ]: non-standard residue; d: D form. The star is where a group is joined. PEG12 = NCCOCCOCCOCCOCCOCCOCCOCCOCCOCCOCCOCCOCCC(=O)O; γGlu = O=C(O)[C@H](CCC(=O)[*:2])N[*:1]; Stearoyl = CCCCCCCCCCCCCCCCCC(=O)*; Palmitoyl = CCCCCCCCCCCCCCCC(=O)*; αMeK = C[C@](N)(CCCCN)C(=O)O; Nle = CCCC[C@H](N)C(=O)O; AEEA = NCCOCCOCC(=O)O; Aib = CC(C)(N)C(=O)O

We go through 5 compounds from patent US10988523B2, “Modified lipidated Relaxin B chain peptides and their therapeutic use” (Sanofi, priority 2018, dated 2021).

The nature of data set [1]: Stability testing of peptides in rat plasma or blood. The class given is in vitro ADME. To be noted: 37° C.; for Rat plasma stability % remaining T = 0: rat plasma or blood, T = 0 (reference), 5 μM. The method in brief: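 Peptide at 5 µM final was incubated at 37 °C in heparinized rat or human plasma or blood, sampled up to 4 h, and extracted with acetonitrile/1% TFA. HPLC peak areas relative to t0 give % remaining peptide.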

Data set [2] is described as follows: Solubility testing of peptides in buffer. The class given is physicochemical.
The mark [3] stands for this setting: rat plasma, read-out: Rat plasma stability % remaining 1 h.
Where [4] appears, read: rat plasma, read-out: Rat plasma stability % remaining 4 h.
The mark [5] stands for this setting: acetate buffer, pH 4.5, read-out: Solubility Acetate buffer pH 4.5.
Setting [6] is: phosphate buffer, pH 7.4, read-out: Solubility phosphate buffer pH 7.4.
[7] abbreviates: whole blood, rat blood, read-out: Rat stability in blood % remaining 1 h.
Setting [8] is: whole blood, rat blood, read-out: Rat stability in blood % remaining 4 h.
Setting [9] is: acetate buffer 50 mM pH 4.5, target solubility 10.0 mg/ml, read-out: Solubility Acetate buffer pH 4.5.
The mark [10] stands for this setting: phosphate buffer 50 mM pH 7.4, target solubility 10.0 mg/ml, read-out: Solubility phosphate buffer pH 7.4.

What is called solubility is the dissolved amount per volume that the medium holds. Take `CCCCCCCCCCCCCCCCCC(=O)N[C@@H](CCC(=O)N[C@@H](CCC(=O)N[C@@H](CCC(=O)NCCCC[C@H](NC(=O)CCOCCOCCOCCOCCOCCOCCOCCOCCOCCOCCOCCOCCNC(=O)[C@H](CCCCNC(C)=O)NC(=O)[C@H](CCCCN)NC(=O)[C@H](CCCNC(=N)N)NC(=O)C(C)(C)NC(=O)[C@H](CO)NC(=O)[C@H](Cc1c[nH]c2ccccc12)NC(=O)[C@@H](NC(=O)[C@H](CO)NC(=O)[C@H](CCCC)NC(=O)CNC(=O)[C@H](CCC(=O)O)NC(=O)C(C)(C)NC(=O)C(C)(C)NC(=O)[C@@H](NC(=O)[C@H](CCCCNC(C)=O)NC(=O)[C@H](C)NC(=O)[C@H](CCCNC(=N)N)NC(=O)[C@@H](NC(=O)[C@H](CCCCN)NC(=O)[C@H](CCC(=O)O)NC(=O)[C@H](CCCNC(=N)N)NC(=O)CNC(=O)[C@H](CCC(=O)O)NC(=O)[C@H](CC(C)C)NC(C)=O)C(C)C)[C@@H](C)CC)[C@@H](C)O)C(N)=O)C(=O)O)C(=O)O)C(=O)O` [compound 33] (Ac-LEGREKVRAK(Ac)I[Aib][Aib]EG[Nle]STWS[Aib]RKK(Ac)[PEG12]K([γGlu-γGlu-γGlu-Stearoyl])-NH2): in data set [1], the “Rat plasma stability % remaining T = 0” value is recorded as 100%. The amount remaining at 1 h, 5 µM in data set [1] (setting [3]) came to 93%. Besides, the fraction remaining at 4 h, 5 µM in data set [1] (setting [4]) amounted to 80%. In addition, the solubility in data set [2] (setting [5]) and in data set [2] (setting [6]) was 5400 µg/mL (≈ 1280 µM) each time.
On to `CCCCCCCCCCCCCCCC(=O)N[C@@H](CCC(=O)N[C@@H](CCC(=O)N[C@@H](CCC(=O)NCCOCCOCC(=O)NCCOCCOCC(=O)NCCCC[C@H](NC(=O)[C@H](CCCCN)NC(=O)[C@H](CCCNC(=N)N)NC(=O)C(C)(C)NC(=O)[C@H](CO)NC(=O)[C@H](Cc1c[nH]c2ccccc12)NC(=O)[C@@H](NC(=O)[C@H](CO)NC(=O)[C@H](CCCC)NC(=O)CNC(=O)[C@H](CCC(=O)O)NC(=O)C(C)(C)NC(=O)C(C)(C)NC(=O)[C@@H](NC(=O)[C@H](CCC(N)=O)NC(=O)[C@H](C)NC(=O)[C@H](CCCNC(=N)N)NC(=O)[C@@H](NC(=O)[C@H](CCCCN)NC(=O)[C@H](CCC(=O)O)NC(=O)[C@H](CCCNC(=N)N)NC(=O)CNC(=O)[C@H](CCC(=O)O)NC(=O)[C@H](CC(C)C)NC(C)=O)C(C)C)[C@@H](C)CC)[C@@H](C)O)C(N)=O)C(=O)O)C(=O)O)C(=O)O` [compound 58] (Ac-LEGREKVRAQI[Aib][Aib]EG[Nle]STWS[Aib]RKK([AEEA-AEEA-γGlu-γGlu-γGlu-Palmitoyl])-NH2), for which the “Rat plasma stability % remaining T = 0” value in data set [1] stood at 100%. The fraction remaining at 1 h, 5 µM in data set [1] (setting [3]) amounted to 96%. Also, in data set [1] (setting [4]), the amount remaining at 4 h, 5 µM was 101%. For the same compound, the solubility in data set [2] (setting [5]) and in data set [2] (setting [6]) was 5700 µg/mL (≈ 1550 µM) throughout.
In the case of `CCCCCCCCCCCCCCCCCC(=O)N[C@@H](CCC(=O)N[C@@H](CCC(=O)N[C@@H](CCC(=O)NCCOCCOCC(=O)NCCOCCOCC(=O)NCCOCCOCC(=O)NCCCC[C@H](NC(=O)[C@H](CCCCNC(C)=O)NC(=O)[C@H](CCCCN)NC(=O)[C@H](CCCNC(=N)N)NC(=O)C(C)(C)NC(=O)[C@H](CO)NC(=O)[C@H](Cc1c[nH]c2ccccc12)NC(=O)[C@@H](NC(=O)[C@H](CO)NC(=O)[C@H](CCCC)NC(=O)CNC(=O)[C@H](CCC(=O)O)NC(=O)C(C)(C)NC(=O)C(C)(C)NC(=O)[C@@H](NC(=O)[C@H](CCCCNC(C)=O)NC(=O)[C@H](C)NC(=O)[C@H](CCCNC(=N)N)NC(=O)[C@@H](NC(=O)[C@H](CCCCN)NC(=O)[C@H](CCC(=O)O)NC(=O)[C@H](CCCNC(=N)N)NC(=O)CNC(=O)[C@H](CCC(=O)O)NC(=O)[C@H](CC(C)C)NC(C)=O)C(C)C)[C@@H](C)CC)[C@@H](C)O)C(N)=O)C(=O)O)C(=O)O)C(=O)O` [compound 81] (Ac-LEGREKVRAK(Ac)I[Aib][Aib]EG[Nle]STWS[Aib]RKK(Ac)K([AEEA-AEEA-AEEA-γGlu-γGlu-γGlu-Stearoyl])-NH2), the “Rat plasma stability % remaining T = 0” value in data set [1] amounted to 100%. The amount remaining at 1 h, 5 µM in data set [1] (setting [3]) is 101%. In data set [1] (setting [4]), the share remaining at 4 h, 5 µM stood at 114%. The solubility in data set [2] (acetate buffer 50 mM pH 4.5, target solubility 15.0 mg/ml, read-out: Solubility Acetate buffer pH 4.5) was determined as 11900 µg/mL (≈ 2920 µM).
Regarding `CCCCCCCCCCCCCCCC(=O)N[C@@H](CCC(=O)N[C@@H](CCC(=O)N[C@@H](CCC(=O)N[C@@H](CCC(=O)NCCCC[C@H](NC(=O)COCCOCCNC(=O)COCCOCCNC(=O)COCCOCCNC(=O)COCCOCCNC(=O)[C@H](CCCCNC(C)=O)NC(=O)[C@H](C)NC(=O)[C@H](CCCNC(=N)N)NC(=O)[C@](C)(CCCCN)NC(=O)[C@H](CO)NC(=O)[C@H](Cc1ccccc1)NC(=O)[C@@H](NC(=O)[C@H](CO)NC(=O)[C@H](CCCC)NC(=O)CNC(=O)[C@H](CCC(=O)O)NC(=O)C(C)(C)NC(=O)C(C)(C)NC(=O)[C@@H](NC(=O)[C@H](CCCCNC(C)=O)NC(=O)[C@H](C)NC(=O)[C@H](CCCNC(=N)N)NC(=O)[C@@H](NC(=O)[C@H](CCCCN)NC(=O)[C@H](CCC(=O)O)NC(=O)[C@H](CCCNC(=N)N)NC(=O)CNC(=O)[C@H](CCC(=O)O)NC(=O)[C@H](CC(C)C)NC(C)=O)C(C)C)[C@@H](C)CC)[C@@H](C)O)C(N)=O)C(=O)O)C(=O)O)C(=O)O)C(=O)O` [compound 150] (Ac-LEGREKVRAK(Ac)I[Aib][Aib]EG[Nle]STFS[αMeK]RAK(Ac)[AEEA][AEEA][AEEA][AEEA]K([γGlu-γGlu-γGlu-γGlu-Palmitoyl])-NH2), the “Rat plasma stability % remaining T = 0” value in data set [1] stood at 100%. Besides, the share remaining at 1 h, 5 µM in data set [1] (setting [7]) was found to be 86%. Further, the fraction remaining at 4 h, 5 µM in data set [1] (setting [8]) is 90%. Moreover, the solubility in data set [2] (setting [9]) is 1500 µg/mL (≈ 351 µM); in data set [2] (setting [10]), more than 10000 µg/mL.
Consider `CCCCCCCCCCCCCCCC(=O)N[C@@H](CCC(=O)N[C@@H](CCC(=O)N[C@@H](CCC(=O)N[C@@H](CCC(=O)NCCCC[C@H](NC(=O)COCCOCCNC(=O)COCCOCCNC(=O)COCCOCCNC(=O)COCCOCCNC(=O)[C@H](CCCCNC(C)=O)NC(=O)[C@H](C)NC(=O)[C@H](CCCNC(=N)N)NC(=O)[C@](C)(CCCCN)NC(=O)[C@H](CO)NC(=O)[C@H](Cc1ccccc1)NC(=O)[C@@H](NC(=O)[C@H](CO)NC(=O)[C@H](CCC(N)=O)NC(=O)CNC(=O)[C@H](CCC(=O)O)NC(=O)C(C)(C)NC(=O)C(C)(C)NC(=O)[C@@H](NC(=O)[C@H](CCCCNC(C)=O)NC(=O)[C@H](C)NC(=O)[C@H](CCCNC(=N)N)NC(=O)[C@@H](NC(=O)[C@H](CCCCN)NC(=O)[C@H](CCC(=O)O)NC(=O)[C@H](CCCNC(=N)N)NC(=O)CNC(=O)[C@H](CCC(=O)O)NC(=O)[C@H](CC(C)C)NC(C)=O)C(C)C)[C@@H](C)CC)[C@@H](C)O)C(N)=O)C(=O)O)C(=O)O)C(=O)O)C(=O)O` [compound 170] (Ac-LEGREKVRAK(Ac)I[Aib][Aib]EGQSTFS[αMeK]RAK(Ac)[AEEA][AEEA][AEEA][AEEA]K([γGlu-γGlu-γGlu-γGlu-Palmitoyl])-NH2), for which the “Rat plasma stability % remaining T = 0” value in data set [1] amounted to 100%. Besides, the share remaining at 1 h, 5 µM in data set [1] (setting [7]) came to 107%. For the same compound, the amount remaining at 4 h, 5 µM in data set [1] (setting [8]) is 99%. Also, the solubility is 9800 µg/mL (≈ 2280 µM) in data set [2] (setting [9]) and more than 10000 µg/mL in data set [2] (setting [10]).
